Data from patent US9725414B2, “Fungicidal N-bicycloalkyl and N-tricycloalkyl pyrazole-4-(thio)carboxamide derivatives” (priority 2011, dated 2017).

What was measured:
Alternaria solani = assay: Example C: in vivo preventive test on Alternaria solani (tomato); settings: 500 ppm of active ingredient, evaluated 7 days after inoculation
Method in brief: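 Young tomato plants sprayed preventively with compound formulated in DMF/emulsifier and diluted with water, then inoculated one day later with Alternaria solani spores. Plants were held one day at about 22° C, 100% humidity, then at about 20° C, 96% humidity.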

Sphaerotheca fuliginea [1] = assay: Example A: in vivo preventive test on Sphaerotheca fuliginea (cucumber); settings: 500 ppm of active ingredient, evaluated 7 days after inoculation
Experimental: In Vivo Preventive Test on Sphaerotheca fuliginea (Cucumber) Solvent: 49 parts by weight of N,N-dimethylformamide Emulsifier: 1 part by weight of alkylarylpolyglycolether To produce a suitable preparation of active compound, 1 part by weight of active compound is mixed with the stated amounts of solvent and emulsifier, and the concentrate is diluted with water to the desired concentration. To test for preventive activity, young plants are sprayed with the preparation of active compound at the stated rate of application. One day after this treatment, the plants are inoculated with an aqueous spore suspension of Sphaerotheca fuliginea. Then the plants are placed in a greenhouse at approximately 23° C. and a relative atmospheric humidity of approximately 70%.

Pyrenophora teres [2] = assay: Example E: in vivo preventive test on Pyrenophora teres (barley), DMF/emulsifier preparation; settings: 500 ppm of active ingredient, evaluated 7-9 days after inoculation
Method in brief: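 Young barley plants sprayed preventively with compound formulated in DMF/alkylaryl polyglycol ether emulsifier and diluted in water. One day later inoculated with aqueous Pyrenophora teres spore suspension, then held 48 h at 22 °C and 100% relative humidity.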

Septoria tritici [3] = assay: Example I: in vivo preventive test on Septoria tritici (wheat), acetone/tween/DMSO preparation; settings: 500 ppm of active ingredient, grading 24 days after contamination
Method in brief: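 Scipion wheat grown at 22° C, sprayed at 1-leaf stage (10 cm); controls received acetone/tween/DMSO/water without active. Inoculated 24 h later with S. tritici spores (500 000/mL), held 72 h at 18° C, 100% RH, then 21 days at 90% RH. % efficacy vs controls scored 24 days post-inoculation.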

Pyrenophora teres [4] = assay: Example F: in vivo preventive test on Pyrenophora teres (barley), acetone/tween/DMSO preparation; settings: 500 ppm of active ingredient, barley, grading 14 days after contamination
Method in brief: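 Barley ("Plaisant") grown at 22° C was sprayed at the 1-leaf stage (10 cm) with active ingredient in acetone/tween/DMSO/water, with solvent-only controls. After 24 h, leaves were inoculated with Pyrenophora teres spores (12 000 spores per mL) from 12-day cultures. % efficacy versus controls graded 14 days post-contamination.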

[5] = log P by HPLC on reversed-phase column (C 18), EEC Directive 79831 Annex V.A8; format: physicochemical; settings: HPLC reversed-phase C 18, 40° C., 0.1% aqueous formic acid and acetonitrile gradient; several values = mixture of two or more isomers
Method in brief: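 Reversed-phase C18 HPLC at 40° C, 0.1% aqueous formic acid/acetonitrile linear gradient 10% to 90% acetonitrile, per EEC Directive 79831 Annex V.A8. log P obtained from retention time by linear interpolation between unbranched alkan-2-ones (C3-C16) of known log P.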

Sphaerotheca fuliginea [6] = assay: Example B: in vivo preventive test on Sphaerotheca fuliginea (powdery mildew on cucurbits), gherkin plants; settings: 500 ppm of active ingredient, grading 12 days after contamination
Method in brief: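 Gherkin plants grown at 24 °C were sprayed with compound at the Z11 cotyledon stage; controls received acetone/tween/DMSO/water without active. 24 h later, cotyledons were inoculated by spraying with Sphaerotheca fuliginea spores (100 000 spores per mL).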

Uromyces appendiculatus = assay: Example Q: in vivo preventive test on Uromyces appendiculatus (bean rust); settings: Uromyces appendiculatus on bean plants, 500 ppm of active ingredient, grading 11 days after contamination
Experimental: In Vivo Preventive Test on Uromyces appendiculatus (Bean Rust) […] Bean plants (“Saxa” variety), sown in starter cups on a 50/50 peat soil pozzolana substrate and grown at 24° C., are treated at the 2 leaf stage (9 cm height) by spraying with the active ingredient prepared as described above. Plants, used as controls, are treated with the mixture of acetone/tween/DMSO/water not containing the active material. After 24 hours, the plants are contaminated by spraying the leaves with an aqueous suspension of Uromyces appendiculatus spores (150 000 spores per mL). The spores are collected from infected plants and are suspended in water containing 2.5 mL/L of Tween 80 at 10%. […] Grading (% of efficacy) is carried out 11 days after the contamination, in comparison with the control plants.

Puccinia recondita = assay: Example M: in vivo preventive test on Puccinia recondita (brown rust on wheat); settings: 500 ppm of active ingredient, grading 12 days after contamination
Method in brief: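 Wheat (Scipion) sprayed with compound at 1-leaf stage, grown at 22° C. Inoculated 24 h later with a spore suspension at 100 000 spores per mL. Efficacy (%) graded 12 days after inoculation against solvent-treated controls.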

Alternaria brassicae = assay: Example D: in vivo preventive test on Alternaria brassicae (leaf spot on radish); settings: 500 ppm of active ingredient, grading 6 days after contamination
Experimental: In Vivo Preventive Test on Alternaria brassicae (Leaf Spot on Radish) […] Radish plants (“Pernod Clair” variety), sown in starter cups on a 50/50 peat soil pozzolana substrate and grown at 17° C., are treated at the cotyledon stage by spraying with the active ingredient prepared as described above. Plants, used as controls, are treated with the mixture of acetone/tween/DMSO/water not containing the active material. After 24 hours, the plants are contaminated by spraying the cotyledons with an aqueous suspension of Alternaria brassicae spores (50 000 spores per mL). The spores are collected from a 15-day-old culture. The contaminated radish plants are incubated at 20° C. and at 100% relative humidity. Grading (% of efficacy) is carried out 6 days after the contamination, in comparison with the control plants.

Botrytis cinerea [7] = assay: Example P: in vivo preventive test on Botrytis cinerea (grey mould), gherkin plants; settings: 500 ppm of active ingredient, grading 4 to 5 days after contamination
Experimental: In Vivo Preventive Test on Botrytis cinerea (Grey Mould) […] Gherkin plants (“Vert petit de Paris” variety), sown in starter cups on a 50/50 peat soil pozzolana substrate and grown at 24° C. are treated at the Z11 cotyledon stage by spraying with the active ingredient prepared as described above. Plants, used as controls, are treated with the mixture of acetone/tween/DMSO/water not containing the active material. After 24 hours, the plants are contaminated by spraying the cotyledons with an aqueous suspension of cryopreserved Botrytis cinerea spores (50 000 spores per mL). The spores are suspended in a nutrient solution composed of 10 g/L of PDB, 50 g/L of D-Fructose, 2 g/L of NH4NO3 and 1 g/L of KH2PO4. The contaminated gherkin plants are incubated at 17° C. and at 90% relative humidity. Grading (% of efficacy) is carried out 4 to 5 days after the contamination, in comparison with the control plants.

Botrytis cinerea [8] = assay: Example O: in vivo protective test on Botrytis cinerea (beans); settings: 100 ppm of active ingredient, lesion size 2 days after inoculation
Experimental: In Vivo Protective Test on Botrytis cinerea (Beans)
Solvent: 24.5 parts by weight of acetone • 24.5 parts by weight of N,N-dimethylacetamide
Emulsifier: 1 part by weight of alkylaryl polyglycol ether
To produce a suitable preparation of active compound, 1 part by weight of active compound is mixed with the stated amounts of solvent and emulsifier, and the concentrate is diluted with water to the desired concentration.
To test for preventive activity, young plants are sprayed with the preparation of active compound. After the spray coating has dried on, 2 small pieces of agar covered with growth of Botrytis cinerea are placed on each leaf. The inoculated plants are placed in a darkened chamber at 20° C. and a relative atmospheric humidity of 100%.
2 days after the inoculation, the size of the lesions on the leaves is evaluated. 0% means an efficacy which corresponds to that of the untreated control, while an efficacy of 100% means that no disease is observed.

Venturia inaequalis = assay: Example G: in vivo preventive test on Venturia inaequalis (apple scab); settings: 100 ppm of active ingredient, evaluated 10 days after inoculation
Experimental: In Vivo Preventive Test on Venturia inaequalis (Apple Scab) Solvent: 24.5 parts by weight of acetone • 24.5 parts by weight of N,N-dimethylacetamide Emulsifier: 1 part by weight of alkylaryl polyglycol ether To produce a suitable preparation of active compound, 1 part by weight of active compound is mixed with the stated amounts of solvent and emulsifier, and the concentrate is diluted with water to the desired concentration. To test for preventive activity, young plants are sprayed with the preparation of active compound at the stated rate of application. After the spray coating has dried on, the plants are inoculated with an aqueous conidia suspension of the causal agent of apple scab (Venturia inaequalis) and then remain for 1 day in an incubation cabinet at approximately 20° C. and a relative atmospheric humidity of 100%. The plants are then placed in a greenhouse at approximately 21° C. and a relative atmospheric humidity of approximately 90%.

Septoria tritici [9] = assay: Example H: in vivo preventive test on Septoria tritici (wheat), N,N-dimethylacetamide/emulsifier preparation; settings: 500 ppm of active ingredient, evaluated 21 days after inoculation
Experimental: (§1) In Vivo Preventive Test on Septoria tritici (Wheat) Solvent: 49 parts by weight of N,N-dimethylacetamide Emulsifier: 1 part by weight of alkylaryl polyglycol ether To produce a suitable preparation of active compound, 1 part by weight of active compound or active compound combination is mixed with the stated amounts of solvent and emulsifier, and the concentrate is diluted with water to the desired concentration. To test for preventive activity, young plants are sprayed with the preparation of active compound or active compound combination at the stated rate of application. After the spray coating has been dried, the plants are sprayed with a spore suspension of Septoria tritici. The plants remain for 48 hours in an incubation cabinet at approximately 20° C. and a relative atmospheric humidity of approximately 100% and afterwards for 60 hours at approximately 15° C. in a translucent incubation cabinet at a relative atmospheric humidity of approximately 100%.

[10] = system: Blumeria graminis f.sp. hordei; assay: Example J: in vivo preventive test on Blumeria graminis (barley); settings: 500 ppm of active ingredient, evaluated 7 days after inoculation
Experimental: In Vivo Preventive Test on Blumeria graminis (Barley) Solvent: 49 parts by weight of N,N-dimethylacetamide Emulsifier: 1 part by weight of alkylaryl polyglycol ether To produce a suitable preparation of active compound, 1 part by weight of active compound or active compound combination is mixed with the stated amounts of solvent and emulsifier, and the concentrate is diluted with water to the desired concentration. To test for preventive activity, young plants are sprayed with the preparation of active compound or active compound combination at the stated rate of application. After the spray coating has been dried, the plants are dusted with spores of Blumeria graminis f.sp. hordei.

Leptosphaeria nodorum = assay: Example K: in vivo preventive test on Leptosphaeria nodorum (wheat); settings: 500 ppm of active ingredient, evaluated 8 days after inoculation
Experimental: as §1, with “Leptosphaeria nodorum” for “Septoria tritici”, “Leptosphaeria nodorum.” for “Septoria tritici.”, “approximately” for “approximately 100% and afterwards for 60 hours at approximately 15° C. in a translucent incubation cabinet at a relative atmospheric humidity of approximately”

CC1CC(C)(C)C2CCCC(NC(=S)c3c(C(F)F)nn(C)c3F)C12 (mixture of isomers) [Example 18]
Efficacy (Alternaria solani): 80%
Efficacy (Sphaerotheca fuliginea [1]): 83%
Efficacy (Pyrenophora teres [2]): 95%

CCc1nn(C)c(F)c1C(=O)N(C1CC1)C(C)C1CC2CCC1C2 (mixture of isomers) [Example 95]
Efficacy (Alternaria solani): 100%
Efficacy (Sphaerotheca fuliginea [1]): 95%
Efficacy (Pyrenophora teres [2]): 100%

Cn1nc(C(F)F)c(C(=O)NC2CCCC3CCCCC32)c1F (centres unmarked) [Example 25]
Efficacy (Septoria tritici [3]): 96%
Efficacy (Pyrenophora teres [4]): 86%
logP [5]: 3.60
Efficacy (Alternaria solani): 100%
Efficacy (Sphaerotheca fuliginea [6]): 100%
Efficacy (Uromyces appendiculatus): 80%
Efficacy (Puccinia recondita): 100%
Efficacy (Sphaerotheca fuliginea [1]): 88%
Efficacy (Pyrenophora teres [2]): 95%

Cn1nc(C(F)F)c(C(=O)N(CC2CCCC3CCCCC32)C2CC2)c1F (centres unmarked) [Example 65]
Efficacy (Septoria tritici [3]): 100%
Efficacy (Pyrenophora teres [4]): 100%
logP [5]: 4.90
Efficacy (Sphaerotheca fuliginea [6]): 100%
Efficacy (Uromyces appendiculatus): 100%
Efficacy (Puccinia recondita): 100%
Efficacy (Alternaria brassicae): 100%
Efficacy (Botrytis cinerea [7]): 100%

Cn1cc(C(=O)N(CC2CCCC3CCCCC32)C2CC2)c(C(F)F)n1 (centres unmarked) [Example 66]
Efficacy (Septoria tritici [3]): 100%
Efficacy (Pyrenophora teres [4]): 100%
logP [5]: 4.37
Efficacy (Sphaerotheca fuliginea [6]): 100%
Efficacy (Uromyces appendiculatus): 88%
Efficacy (Puccinia recondita): 94%
Efficacy (Alternaria brassicae): 96%
Efficacy (Botrytis cinerea [7]): 99%

CC1C(CN(C(=O)c2c(C(F)F)nn(C)c2F)C2CC2)CC2CC1C2(C)C (centres unmarked) [Example 77]
logP [5]: 4.69
Efficacy (Alternaria solani): 95%
Efficacy (Sphaerotheca fuliginea [1]): 100%
Efficacy (Pyrenophora teres [2]): 100%

CC1C(CN(C(=O)c2cn(C)nc2C(F)F)C2CC2)CC2CC1C2(C)C (centres unmarked) [Example 78]
logP [5]: 4.21
Efficacy (Alternaria solani): 100%
Efficacy (Sphaerotheca fuliginea [1]): 95%
Efficacy (Pyrenophora teres [2]): 100%

CC1C(CNC(=S)c2c(C(F)F)nn(C)c2F)CC2CC1C2(C)C (centres unmarked) [Example 82]
logP [5]: 4.82
Efficacy (Alternaria solani): 90%
Efficacy (Sphaerotheca fuliginea [1]): 93%
Efficacy (Pyrenophora teres [2]): 95%

Cn1nc(C(F)F)c(C(=O)NCC2CCC3CC2C3(C)C)c1Cl (centres unmarked) [Example 83]
logP [5]: 3.85
Efficacy (Alternaria solani): 95%
Efficacy (Sphaerotheca fuliginea [1]): 90%
Efficacy (Pyrenophora teres [2]): 100%

Cc1nn(C)c(F)c1C(=O)N(C1CC1)C(C)C1CC2CCC1C2 (centres unmarked) [Example 96]
logP [5]: 3.46
Efficacy (Alternaria solani): 100%
Efficacy (Sphaerotheca fuliginea [1]): 95%
Efficacy (Pyrenophora teres [2]): 100%

CC(C1CC2CCC1C2)N(C(=S)c1c(C(F)F)nn(C)c1F)C1CC1 (centres unmarked) [Example 97]
logP [5]: 4.47
Efficacy (Botrytis cinerea [8]): 100%
Efficacy (Alternaria solani): 95%
Efficacy (Venturia inaequalis): 98%
Efficacy (Sphaerotheca fuliginea [1]): 100%
Efficacy (Pyrenophora teres [2]): 100%

Cc1nn(C)c(F)c1C(=S)N(C1CC1)C(C)C1CC2CCC1C2 (centres unmarked) [Example 98]
logP [5]: 4.34
Efficacy (Alternaria solani): 95%
Efficacy (Sphaerotheca fuliginea [1]): 93%
Efficacy (Pyrenophora teres [2]): 100%

CCc1nn(C)c(F)c1C(=O)N(C1CC1)C(C)C12CC3CC(CC(C3)C1)C2 (centres unmarked) [Example 104]
Efficacy (Septoria tritici [9]): 90%
logP [5]: 4.86
Efficacy [10]: 78%
Efficacy (Leptosphaeria nodorum): 83%
Efficacy (Alternaria solani): 95%
Efficacy (Sphaerotheca fuliginea [1]): 96%
Efficacy (Pyrenophora teres [2]): 95%
